Publication PMC5369982, “Near infrared fluorescent imaging of choline kinase alpha expression and inhibition in breast tumors” (Oncotarget, 2017)

Legend:
MDA-MB-231 tumors [1] = experiment: Pharmacodynamic indicators of ChoKα inhibition (MRI/MRS); format: in vivo, mouse; conditions: 5 days i.p., MN58b 2 mg/kg, JAS239 4 mg/kg; for Change in tumor tCho compared to control (MRS) / Tumor volume between pre- and post-treatment scans (MRI): day 7; for PUFA resonances (measure of tumor apoptosis): trend not significant
Protocol: Mice bearing subcutaneous 4175-Luc+ or MB-MDA-231 tumors (∼300 μL) underwent pre-treatment MRS scans in a 9.4 T horizontal bore magnet equipped with 40 G/cm gradients interfaced to an Agilent Direct-Drive console (Agilent) operating vnmrj 2.3.C software. Multi-slice gradient and spin echo images were used for tumor localization. T2-weighted spin echo anatomical images were acquired using a spin echo multi-slice (SEMS) pulse sequence (TR = 1000 ms, TE = 10 ms, number of slices = 20, field of view = 20 × 20 mm^2, slice thickness = 1 mm, NT = 1, matrix size = 256 × 128) and used for voxel selection. A single voxel ^1H PRESS spectrum was acquired in a 3×3x3 mm^3 voxel (TR = 3000 ms, TE1 = 12.68 ms and TE2 = 10.01 ms, number of averages = 128, complex points = 4096, spectral width = 4000 Hz and acquisition time of 6 min 24 sec). Water suppression was achieved using the VAPOR sequence. An unsuppressed water spectrum was acquired (8 averages) as a chemical shift and concentration reference. One week following initiation of treatment, ^1H MR spectra were acquired again. Spectra were processed using Mnova Lite 5.2.5 software (Mestrelab Research). Free induction decays were processed by 10 Hz apodization followed by Fourier transformation. Spectra were phased and chemical shift and baseline correction performed prior to fitting of the water (4.7 ppm), tCho (3.2 ppm), PUFA (2.8 ppm), and lipid (1.3 ppm) resonances. The metabolite/water ratio was determined and the percent change was determined as [post-treatment ratio – pre-treatment ratio] *100%/pre-treatment ratio.
(§1) A cohort of 15 mice was inoculated with MDA-MB-231 cells. When a volume of 300 μL was reached, tumors were scanned using MRS. Tumor volumes were measured using T2-weighted images. The animals were separated into treatment groups, and for 5 consecutive days each group was injected i.p. with 100 μL of DMSO/saline vehicle (n = 5), 2 mg/kg MN58b (n = 4), or 4 mg/kg JAS239 (n = 3). Initial cohort sizes were 5 per condition, but some animals had to be removed from the study because the treatment was so effective that we were unable to place voxels within post-treatment tumors that were too small. Follow-up MRI/MRS scanning was performed on day 7 to assess tumor growth inhibition and changes in metabolite levels. After imaging, blood was collected into heparin-coated tubes by cardiac puncture. Resected tumors were embedded in Optimum Cryo-Temperature (Sakura Finetek), flash-frozen in liquid nitrogen, and stored at –80 °C. Blood samples were submitted to the Ryan Veterinary Clinic Diagnostic labs for toxicology.

MDA-MB-231 tumors [2] = experiment: Histopathology of treated tumors (H&E, Ki67, caspase-3); format: in vivo, mouse; conditions: 5 days i.p.; MN58b 2 mg/kg, JAS239 4 mg/kg; vs control
Protocol: as §1
Hematoxylin and eosin staining and immunohistochemistry was performed as described previously. Caspase-3 (R&D Systems AF835) and Ki67 (Abcam ab16667) antibody staining was performed on a Bond Max automated staining system (Leica Microsystems) using the Bond Intense R staining kit (Leica Microsystems DS9263). An Aperio Scan Scope OS (Aperio Technology) was used to scan slides, and the Image Scope nuclear staining algorithm (version 9; Aperio Technology) was used to quantify Ki67 and caspase-3 positive nuclei in representative regions of each slide.

MDA-MB-231 cells = experiment: Cell viability, MTT assay; format: cell-based, human; conditions: 17 h, ± SEM, 3 experiments
Protocol: (§2) MCF7 cells were plated for Trypan exclusion assays at 1.0 × 10^6 cells/well in 6-well plates and treated with MN58b or JAS239, synthesized in house. At 17 h, cells were collected by trypsinization, stained with Trypan Blue, and counted using a Neubauer hemocytometer. For 3-(4,5-Dimethylthiazol-2-yl)-2,5-diphenyltetrazolium bromide (MTT) assays, cells in 96-well plates (7.5 × 10^4 cells/well) were treated with JAS239 or MN58b overnight, and stained with 20 μL of 5 mg/mL MTT (Sigma-Aldrich) for 2 h, lysed with DMSO and scanned for absorbance using a SpectraMax M5 plate reader (Molecular Devices) at 550 nm, subtracting background absorbance at 690 nm from each sample.
(§3) Supplementary Figure 2: Breast cancer cell viability in response to ChoK inhibitors. (A–D) Cell viability measurements via […]
(§4) (A) or JAS239 (B). MTT assays were performed on MDA-MB-231 and 4175-Luc+ (C, D) cells exposed to MN58b (C) or JAS239 (D).
(§5) Values are reported relative to untreated control groups and represent ± SEM for 3 separate experiments. At higher JAS239 concentrations, the MTT assay was used as JAS239 interfered with Trypan blue counting. There was no overlap in absorbance readings between the MTT formazan product and JAS239.
(§6) (1 picture or pasted object on this page, not shown here)

4175-Luc+ cells = experiment: Cell viability, MTT assay; format: cell-based, human; conditions: 17 h, ± SEM, 3 experiments
Protocol: as §2, §3, §4, §5, §6

4175-Luc+ tumors = experiment: Tumor growth inhibition; format: in vivo, mouse; conditions: 5-day i.p. regimen from day 3 after inoculation; MN58b 2 mg/kg/day, JAS239 4 mg/kg/day
Protocol: All animal studies were approved by the Institutional Animal Care and Use Committee of the University of Pennsylvania. Six week old female athymic nude Foxn1^nu/nu mice (National Cancer Institute) were housed in a temperature-controlled environment with 12 h light/dark cycle. Anesthesia was induced using 2% isoflurane in oxygen for all experiments. For MCF7 tumors, mice were supplemented with 60-day release 0.36 mg 17β-estradiol tablets (Innovative Research of America) using a trochar in the nape of the neck. After 1 week, 4 × 10^6 cells in Matrigel (BD Biosciences) were inoculated into the left (CK+) and contralateral (EV) mammary fat pads. Subcutaneous xenografts, including those analyzed in MRI/MRS studies, were grown on the shoulder to allow for cloaking of the kidneys during optical imaging studies. Tumor growth was determined via caliper measurement of three orthogonal dimensions and volume calculated as length * width * height * π/6.
A cohort of 15 mice was inoculated with 4175-Luc+ tumors. Beginning 3 days post-inoculation, animals received a 100-μL i.p. injection of either control DMSO/saline, 2 mg/kg MN58b or 4 mg/kg JAS239 in DMSO/saline daily for 5 days. Tumor volumes were assessed by caliper measurement.

Molecule | Change in tumor tCho compared to control (MRS) (MDA-MB-231 tumors [1]) | Tumor volume between pre- and post-treatment scans (MRI) (MDA-MB-231 tumors [1]) | PUFA resonances (measure of tumor apoptosis) (MDA-MB-231 tumors [1]) | Caspase-3 levels (MDA-MB-231 tumors [2]) | Cell density (H&E) (MDA-MB-231 tumors [2]) | Percentage of Ki67-positive cells (MDA-MB-231 tumors [2]) | EC50 (MDA-MB-231 cells) [µM] | EC50 (4175-Luc+ cells) [µM] | Tumor volume compared to control animals (4175-Luc+ tumors)
CC1(C)C(=C/C=C/C=C/C=C/C2=[N+](CCO)c3ccccc3C2(C)C)N(CCO)c2ccccc21 [JAS239] | reduce tCho to noise levels | static | increased | higher caspase-3 levels | significant reduction in cell density | significantly reduced | 27.2 ± 7.9 | 35 ± 21.6 | significantly smaller tumor volumes
MN58b [reference compound] | Significant reductions in tCho | static | increased | higher caspase-3 levels | significant reduction in cell density | significantly reduced | 14.3 ± 4.6 | 20.7 ± 6.4 | significantly smaller tumor volumes
